Values joined by “and” are separate entries in the source; they are usually repeats but may differ in a detail not shown here. Equal entries are not always repeated. Where two headings read alike, the source gives them in different places. Marks after values point to notes of the source that are not given here.
What was measured:
AgAChE1 = AgAChE1 (Anopheles gambiae, UniProt Q869C3); format: biochemical
AgAChE1-G119S [1] = biological target: T1, AgAChE1-G119S (Anopheles gambiae, UniProt Q869C3, G280S); settings: cited from earlier work
[2] = test system: AChE1 vs vertebrate AChEs; format: biochemical
AaAChE1 [3] = biological target: T2, AaAChE1 (Aedes aegypti, UniProt Q6A2E2); format: biochemical
AgAChE1-G119S [4] = biological target: T1, AgAChE1-G119S; format: biochemical
[5] = biological target: T3, Anopheles gambiae AChE1-G119S (Anopheles gambiae, UniProt Q869C3, G280S); format: biochemical
[6] = biological target: Anopheles gambiae AChE1 (AgAChE1) (Anopheles gambiae, UniProt Q869C3); format: biochemical
[7] = biological target: Aedes aegypti AChE1 (AaAChE1) (Aedes aegypti, UniProt Q6A2E2); format: biochemical
[8] = biological target: T4, Homo sapiens AChE (hAChE) (Homo sapiens, UniProt P22303); format: biochemical
[9] = biological target: T5, Mus musculus AChE (mAChE) (Mus musculus, UniProt P21836); format: biochemical
mAChE [10] = biological target: T6, mAChE (Mus musculus, UniProt P21836); format: biochemical
hAChE [11] = biological target: T7, hAChE (Homo sapiens, UniProt P22303); format: biochemical
mAChE [12] = biological target: T6, mAChE; assay: biochemical; settings: IC 50-values of reversible inhibitors
[13] = biological target: T4, Homo sapiens AChE (hAChE); settings: cited from earlier work
[14] = biological target: T5, Mus musculus AChE (mAChE); settings: cited from earlier work
[15] = biological target: T3, Anopheles gambiae AChE1-G119S; settings: cited from earlier work
mAChE [16] = biological target: T6, mAChE; settings: read-out: IC 50-values of reversible inhibitors; cited from earlier work
AaAChE1 [17] = biological target: T2, AaAChE1; assay: biochemical
hAChE [18] = biological target: T7, hAChE; settings: read-out: IC 50-values of reversible inhibitors; cited from earlier work

In the case of CNC(=O)Oc1ccccc1OC(C)C [Propoxur, propoxur], the “ki-values of covalent inhibitors” value (AgAChE1) is listed as 1.11 (1.02–1.21) μM^-1 min^-1 and 1,11 μM^-1 min^-1, the ki (AgAChE1-G119S [1]) is listed as 0,00015^b µM^-1 min^-1 and the “fold lower inhibition constants than eserine” value [2] is listed as 15–30 fold. For the same compound, the “fold more potent on AChE1 than on vertebrate AChEs (k i)” value [2] was “approximately 10 fold”, the “ki-values of covalent inhibitors” value (AaAChE1 [3]) was 1.20 (1.05–1.35) μM^-1 min^-1 and 1,2 μM^-1 min^-1 and the “inhibition of the G119S mutant” value (AgAChE1-G119S [4]) was “only marginal inhibition”.

For CCCC(=O)SCC[N+](C)(C)C [BTChI, butyrylthiocholine iodide], the Vmax [5] was 34 (24–45) mA/min, the Km [6] was 36 µM and the Vmax [6] was 58 (55–61) mA/min. The Km [7] was 45 µM and the Vmax [7] was 38 (36–40) mA/min.

For CCC(=O)SCC[N+](C)(C)C [PTChI, propionylthiocholine iodide], the Vmax [5] was 105 (87–123) mA/min, the Km [6] was 25 µM and the Vmax [6] was 407 (393–421) mA/min. The “Vmax in percent of Vmax(ATChI)” value [6] was 77,1^a percent of Vmax(ATChI), the Km [8] was 150 µM and the Vmax [8] was 429 (415–442) mA/min. For the same compound, the “Vmax in percent of Vmax(ATChI)” value [8] was 52,3^a percent of Vmax(ATChI), the Km [9] was 59 µM and the Vmax [9] was 367 (354–380) mA/min. For the same compound, the “Vmax in percent of Vmax(ATChI)” value [9] was 50,6^a percent of Vmax(ATChI), the Km [7] was 20 µM and the Vmax [7] was 266 (258–275) mA/min. For the same compound, the “Vmax in percent of Vmax(ATChI)” value [7] was 65,5^a percent of Vmax(ATChI).

In the case of CNC(=O)Oc1ccc2c(c1)[C@]1(C)CCN(C)[C@@H]1N2C [Eserine, eserine], the “ki-values of covalent inhibitors” value (AgAChE1) is reported as 27.3 (23.8–30.8) μM^-1 min^-1 and 27,26 μM^-1 min^-1, the “ki-values of covalent inhibitors” value (mAChE [10]) is reported as 1.36 (1.15–1.56) μM^-1 min^-1 and 1,36 μM^-1 min^-1 and the “ki-values of covalent inhibitors” value (hAChE [11]) is reported as 2.66 (2.28–3.05) μM^-1 min^-1 and 2,66 μM^-1 min^-1. The “fold more potent on AChE1 than on vertebrate AChEs (k i)” value [2] was “approximately 10 fold”, the “ki-values of covalent inhibitors” value (AaAChE1 [3]) was 24.8 (18.1–31.5) μM^-1 min^-1 and 24,8 μM^-1 min^-1 and the “ki-values of covalent inhibitors” value (AgAChE1-G119S [4]) was 1.18 (0.63–1.72) μM^-1 min^-1 and 1,18 μM^-1 min^-1.

In the case of CCN(CC)C(C)CN1c2ccccc2Sc2ccccc21 (centres unmarked) [Ethopropazine, ethopropazine], the IC50 (mAChE [12]) is reported as about 1000 µM.

In the case of CC(=O)SCC[N+](C)(C)C [ATChI, acetylthiocholine iodide], the Kcat [13] is listed as 6167^d s^-1, the Vmax [5] is listed as 318 (310–326) mA/min and the “Vmax in percent of Vmax(ATChI)” value [5] is listed as 100^a percent of Vmax(ATChI). For the same compound, the Km [6] was 27 µM, the Vmax [6] was 528 (505–552) mA/min and the “Vmax in percent of Vmax(ATChI)” value [6] was 100^a percent of Vmax(ATChI). For the same compound, the Km [8] was 146 µM, the Vmax [8] was 821 (782–860) mA/min and the “Vmax in percent of Vmax(ATChI)” value [8] was 100^a percent of Vmax(ATChI). The Km [9] was 84 µM, the Vmax [9] was 725 (694–756) mA/min and the “Vmax in percent of Vmax(ATChI)” value [9] was 100^a percent of Vmax(ATChI). The Kcat [14] was 2333^c s^-1, the Kcat [15] was 4^b s^-1 and the Km [7] was 25 µM. For the same compound, the Vmax [7] was 406 (389–422) mA/min and the “Vmax in percent of Vmax(ATChI)” value [7] was 100^a percent of Vmax(ATChI).

In the case of CCN1CCC[C@@H]1CNC(=O)c1cc([N+](=O)[O-])c(N(C)C)cc1OC [C5685R], the IC50 (mAChE [16]) is listed as 0.7 µM, the IC50 (AaAChE1 [17]) is listed as over 30 µM and the IC50 (hAChE [18]) is listed as 1.3 µM.

For CCN1CCC[C@H]1CNC(=O)c1cc([N+](=O)[O-])c(N(C)C)cc1OC [C5685S], the IC50 (mAChE [16]) is listed as 0.7 µM and the IC50 (hAChE [18]) is listed as 1.4 µM.
